Data reported in ChEMBL document CHEMBL1909046, “DrugMatrix in vitro pharmacology data”.

Experiments:
[1] = DRUGMATRIX: Sodium/nucleoside co-transporter radioligand binding (ligand: nitrobenzylthioinosine); type: cell membranes, Cavia porcellus, Dunkin-Hartley, Cerebral cortex, Membrane; conditions: Not Active = under 50% inhibition at 10 µM
[2] = molecular target: Beta-2 adrenergic receptor (Homo sapiens, UniProt P07550); assay: DRUGMATRIX: Adrenergic beta2 radioligand binding (ligand: [3H] CGP-12177); type: cell membranes, Membrane; conditions: cho; Not Active = under 50% inhibition at 10 µM
Chain of Beta-2 adrenergic receptor (P07550 whole entry): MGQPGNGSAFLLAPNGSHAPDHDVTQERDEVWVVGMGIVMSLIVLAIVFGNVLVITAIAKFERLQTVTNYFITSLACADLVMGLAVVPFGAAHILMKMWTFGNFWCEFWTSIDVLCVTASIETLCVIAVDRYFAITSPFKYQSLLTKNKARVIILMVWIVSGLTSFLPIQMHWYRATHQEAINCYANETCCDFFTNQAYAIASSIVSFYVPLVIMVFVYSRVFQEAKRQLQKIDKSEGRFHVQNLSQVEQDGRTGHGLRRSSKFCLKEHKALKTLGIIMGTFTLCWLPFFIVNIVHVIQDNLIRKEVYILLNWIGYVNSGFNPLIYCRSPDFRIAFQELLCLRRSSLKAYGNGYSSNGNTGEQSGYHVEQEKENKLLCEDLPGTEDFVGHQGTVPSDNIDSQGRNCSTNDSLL

[3] = molecular target: 5-hydroxytryptamine receptor 4 (Cavia porcellus, UniProt O70528); type: cell membranes, Dunkin-Hartley, Striatum, Membrane; note: in other assays of this panel Not Active means under 50% inhibition at 10 µM
Chain of 5-hydroxytryptamine receptor 4 (O70528 whole entry): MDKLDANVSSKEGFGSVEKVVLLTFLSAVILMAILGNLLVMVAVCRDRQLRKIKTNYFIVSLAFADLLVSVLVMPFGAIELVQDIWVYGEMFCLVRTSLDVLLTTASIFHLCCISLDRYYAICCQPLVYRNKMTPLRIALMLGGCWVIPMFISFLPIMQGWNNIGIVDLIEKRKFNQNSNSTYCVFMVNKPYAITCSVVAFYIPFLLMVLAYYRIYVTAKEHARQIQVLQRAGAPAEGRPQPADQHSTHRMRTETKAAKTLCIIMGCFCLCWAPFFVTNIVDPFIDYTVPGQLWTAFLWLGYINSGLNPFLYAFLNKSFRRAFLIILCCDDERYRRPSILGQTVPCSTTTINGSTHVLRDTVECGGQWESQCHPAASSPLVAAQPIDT

[4] = molecular target: T1, C-X-C chemokine receptor type 1 (Homo sapiens, UniProt P25024); note: in other assays of this panel Not Active means under 50% inhibition at 10 µM
T1 sequence (P25024 whole entry): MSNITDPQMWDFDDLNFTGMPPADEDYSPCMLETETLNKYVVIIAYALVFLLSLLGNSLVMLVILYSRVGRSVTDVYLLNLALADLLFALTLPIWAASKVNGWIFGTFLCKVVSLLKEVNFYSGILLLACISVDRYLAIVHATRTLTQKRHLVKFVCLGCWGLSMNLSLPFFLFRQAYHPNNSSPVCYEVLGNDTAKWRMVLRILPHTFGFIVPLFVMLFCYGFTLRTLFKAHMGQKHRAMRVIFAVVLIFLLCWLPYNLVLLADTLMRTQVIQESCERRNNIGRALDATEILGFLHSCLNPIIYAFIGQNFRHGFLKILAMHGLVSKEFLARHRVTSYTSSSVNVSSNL

[5] = molecular target: T2, Cholecystokinin receptor type A (Homo sapiens, UniProt P32238); type: cell membranes, Membrane; conditions: 1321-n1; note: in other assays of this panel Not Active means under 50% inhibition at 10 µM
T2 sequence (P32238 whole entry): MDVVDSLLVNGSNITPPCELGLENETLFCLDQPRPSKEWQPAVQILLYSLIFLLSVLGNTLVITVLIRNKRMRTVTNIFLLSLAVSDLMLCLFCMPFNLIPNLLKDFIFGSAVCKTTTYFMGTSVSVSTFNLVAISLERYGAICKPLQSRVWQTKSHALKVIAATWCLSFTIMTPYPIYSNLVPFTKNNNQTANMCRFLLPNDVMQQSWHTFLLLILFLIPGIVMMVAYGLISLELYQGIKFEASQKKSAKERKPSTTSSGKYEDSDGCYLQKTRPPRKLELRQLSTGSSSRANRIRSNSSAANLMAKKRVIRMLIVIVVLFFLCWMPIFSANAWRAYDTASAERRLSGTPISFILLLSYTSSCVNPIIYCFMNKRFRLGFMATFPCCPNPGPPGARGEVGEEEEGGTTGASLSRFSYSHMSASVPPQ

Histamine H2 receptor = Histamine H2 receptor (Homo sapiens, UniProt P25021); type: cell membranes, CHO-K1, Membrane; conditions: cho-k1; note: in other assays of this panel Not Active means under 50% inhibition at 10 µM
Chain of Histamine H2 receptor (P25021 whole entry): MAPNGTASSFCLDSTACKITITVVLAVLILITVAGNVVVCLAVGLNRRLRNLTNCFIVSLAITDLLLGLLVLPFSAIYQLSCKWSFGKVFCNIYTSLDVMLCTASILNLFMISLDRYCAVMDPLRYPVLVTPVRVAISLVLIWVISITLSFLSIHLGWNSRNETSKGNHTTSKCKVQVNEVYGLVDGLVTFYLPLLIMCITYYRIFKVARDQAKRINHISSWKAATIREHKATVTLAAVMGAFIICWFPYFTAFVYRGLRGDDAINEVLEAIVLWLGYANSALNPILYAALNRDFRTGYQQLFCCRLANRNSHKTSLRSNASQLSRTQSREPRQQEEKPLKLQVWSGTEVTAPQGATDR

[6] = DRUGMATRIX: Imidazoline I2, Central radioligand binding (ligand: [3H] Idazoxan); type: cell membranes, Rattus norvegicus, Wistar, Cerebral cortex, Membrane; conditions: Not Active = under 50% inhibition at 10 µM
Insulin receptor = Insulin receptor (Rattus norvegicus, UniProt P15127); type: cell membranes, Wistar, Liver, Membrane; note: in other assays of this panel Not Active means under 50% inhibition at 10 µM
Chain of Insulin receptor (P15127 27-759 limits assumed): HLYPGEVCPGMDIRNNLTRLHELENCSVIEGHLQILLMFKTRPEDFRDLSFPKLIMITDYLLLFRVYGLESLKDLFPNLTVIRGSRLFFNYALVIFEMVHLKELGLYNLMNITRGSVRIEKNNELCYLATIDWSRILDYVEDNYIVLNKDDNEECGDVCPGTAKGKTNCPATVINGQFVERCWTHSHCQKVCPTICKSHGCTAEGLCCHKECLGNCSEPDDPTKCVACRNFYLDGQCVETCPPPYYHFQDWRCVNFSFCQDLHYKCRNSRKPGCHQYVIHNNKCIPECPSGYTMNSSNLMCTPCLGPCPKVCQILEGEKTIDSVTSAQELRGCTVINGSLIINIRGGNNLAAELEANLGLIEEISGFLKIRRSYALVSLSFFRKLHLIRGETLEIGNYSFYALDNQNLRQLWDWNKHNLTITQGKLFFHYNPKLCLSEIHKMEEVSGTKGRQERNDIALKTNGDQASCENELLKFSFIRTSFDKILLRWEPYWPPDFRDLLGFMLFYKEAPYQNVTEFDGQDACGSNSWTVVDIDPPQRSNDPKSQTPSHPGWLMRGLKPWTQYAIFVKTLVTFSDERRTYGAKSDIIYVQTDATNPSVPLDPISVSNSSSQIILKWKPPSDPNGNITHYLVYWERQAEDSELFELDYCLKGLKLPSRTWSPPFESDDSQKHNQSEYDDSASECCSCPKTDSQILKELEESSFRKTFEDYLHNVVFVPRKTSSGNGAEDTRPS
Chain of Insulin receptor (P15127 764-1383 limits assumed): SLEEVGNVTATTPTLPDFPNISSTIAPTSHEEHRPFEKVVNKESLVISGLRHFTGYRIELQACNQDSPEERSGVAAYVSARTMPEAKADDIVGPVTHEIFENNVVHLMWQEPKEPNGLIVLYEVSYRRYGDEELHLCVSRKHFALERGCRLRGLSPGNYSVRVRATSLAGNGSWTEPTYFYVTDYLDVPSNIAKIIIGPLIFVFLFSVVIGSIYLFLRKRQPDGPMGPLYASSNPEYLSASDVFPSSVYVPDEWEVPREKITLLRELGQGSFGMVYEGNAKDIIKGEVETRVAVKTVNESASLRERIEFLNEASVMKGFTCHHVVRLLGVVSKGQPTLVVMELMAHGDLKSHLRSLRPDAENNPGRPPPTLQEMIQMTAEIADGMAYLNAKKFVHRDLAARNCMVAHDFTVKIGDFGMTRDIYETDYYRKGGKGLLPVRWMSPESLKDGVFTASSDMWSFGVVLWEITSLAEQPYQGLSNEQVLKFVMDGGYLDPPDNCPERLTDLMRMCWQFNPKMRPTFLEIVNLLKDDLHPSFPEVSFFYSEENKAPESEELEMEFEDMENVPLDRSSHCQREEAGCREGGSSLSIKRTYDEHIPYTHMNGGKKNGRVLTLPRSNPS

[7] = DRUGMATRIX: Leukotriene, BLT (LTB4) radioligand binding (ligand: [3H]LTB4); type: cell membranes, Membrane; conditions: u-937; Not Active = under 50% inhibition at 10 µM
Melanocortin receptor 3 = Melanocortin receptor 3 (Homo sapiens, UniProt P41968); type: cell membranes, Membrane; conditions: hek293; note: in other assays of this panel Not Active means under 50% inhibition at 10 µM
Chain of Melanocortin receptor 3 (P41968 whole entry): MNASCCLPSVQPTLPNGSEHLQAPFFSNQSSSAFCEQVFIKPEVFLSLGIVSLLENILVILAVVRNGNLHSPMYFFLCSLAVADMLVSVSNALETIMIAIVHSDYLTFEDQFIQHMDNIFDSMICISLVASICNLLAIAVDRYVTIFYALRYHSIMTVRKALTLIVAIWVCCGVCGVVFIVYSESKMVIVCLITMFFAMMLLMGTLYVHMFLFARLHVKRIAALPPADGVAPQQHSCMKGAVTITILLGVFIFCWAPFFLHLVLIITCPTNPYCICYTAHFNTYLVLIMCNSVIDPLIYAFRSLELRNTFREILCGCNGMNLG

[8] = molecular target: T3, Muscarinic acetylcholine receptor M4 (Homo sapiens, UniProt P08173); type: cell membranes, CHO-K1, Membrane; conditions: cho-k1; note: in other assays of this panel Not Active means under 50% inhibition at 10 µM
T3 sequence (P08173 whole entry): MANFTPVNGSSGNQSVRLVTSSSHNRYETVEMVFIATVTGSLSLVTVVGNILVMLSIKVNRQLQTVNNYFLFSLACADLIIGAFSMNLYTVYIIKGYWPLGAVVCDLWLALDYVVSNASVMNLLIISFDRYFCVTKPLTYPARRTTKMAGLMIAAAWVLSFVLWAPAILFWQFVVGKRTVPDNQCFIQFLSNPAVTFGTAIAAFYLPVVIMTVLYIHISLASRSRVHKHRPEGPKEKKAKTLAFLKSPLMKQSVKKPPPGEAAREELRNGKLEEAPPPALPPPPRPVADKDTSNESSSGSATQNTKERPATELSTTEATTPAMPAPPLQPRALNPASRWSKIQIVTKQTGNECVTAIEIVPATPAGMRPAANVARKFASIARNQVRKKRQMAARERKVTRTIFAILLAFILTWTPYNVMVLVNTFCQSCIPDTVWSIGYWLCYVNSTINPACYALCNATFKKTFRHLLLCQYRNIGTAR

Cytochrome P450 1A2 = molecular target: T4, Cytochrome P450 1A2 (Homo sapiens, UniProt P05177); conditions: bti-tn-5b1-4; note: in other assays of this panel Not Active means under 50% inhibition at 10 µM
T4 sequence (P05177 whole entry): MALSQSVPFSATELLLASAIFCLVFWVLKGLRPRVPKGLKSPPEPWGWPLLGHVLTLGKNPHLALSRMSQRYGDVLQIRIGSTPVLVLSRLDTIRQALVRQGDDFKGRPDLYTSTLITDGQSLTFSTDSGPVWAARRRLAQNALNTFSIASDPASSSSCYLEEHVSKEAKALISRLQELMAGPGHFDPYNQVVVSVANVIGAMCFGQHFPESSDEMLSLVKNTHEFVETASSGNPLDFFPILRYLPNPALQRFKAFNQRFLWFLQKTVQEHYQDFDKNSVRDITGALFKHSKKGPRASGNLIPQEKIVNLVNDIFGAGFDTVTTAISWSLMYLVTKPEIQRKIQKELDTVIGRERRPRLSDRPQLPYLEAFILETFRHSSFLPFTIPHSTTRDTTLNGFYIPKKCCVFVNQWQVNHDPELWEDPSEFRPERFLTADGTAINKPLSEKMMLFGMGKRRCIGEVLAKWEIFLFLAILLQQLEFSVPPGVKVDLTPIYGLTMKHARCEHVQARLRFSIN

Cytochrome P450 2D6 = Cytochrome P450 2D6 (Homo sapiens, UniProt P10635); conditions: bti-tn-5b1-4; note: in other assays of this panel Not Active means under 50% inhibition at 10 µM
Chain of Cytochrome P450 2D6 (P10635 whole entry): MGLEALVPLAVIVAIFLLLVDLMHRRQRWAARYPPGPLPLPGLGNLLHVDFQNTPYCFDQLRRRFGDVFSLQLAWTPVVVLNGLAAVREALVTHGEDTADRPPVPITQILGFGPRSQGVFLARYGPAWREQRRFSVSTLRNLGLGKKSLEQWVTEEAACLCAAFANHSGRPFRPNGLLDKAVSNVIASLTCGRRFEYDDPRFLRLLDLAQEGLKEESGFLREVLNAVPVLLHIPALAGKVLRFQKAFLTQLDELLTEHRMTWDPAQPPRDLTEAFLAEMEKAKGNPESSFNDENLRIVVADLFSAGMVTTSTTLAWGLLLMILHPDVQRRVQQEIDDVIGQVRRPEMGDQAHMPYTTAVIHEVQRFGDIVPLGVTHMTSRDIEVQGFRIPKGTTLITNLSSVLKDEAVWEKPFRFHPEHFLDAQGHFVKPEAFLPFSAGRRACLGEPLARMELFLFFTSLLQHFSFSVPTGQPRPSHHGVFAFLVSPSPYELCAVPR

Estrogen receptor beta = Estrogen receptor beta (Homo sapiens, UniProt Q92731); conditions: sf9; note: in other assays of this panel Not Active means under 50% inhibition at 10 µM
Chain of Estrogen receptor beta (Q92731 whole entry): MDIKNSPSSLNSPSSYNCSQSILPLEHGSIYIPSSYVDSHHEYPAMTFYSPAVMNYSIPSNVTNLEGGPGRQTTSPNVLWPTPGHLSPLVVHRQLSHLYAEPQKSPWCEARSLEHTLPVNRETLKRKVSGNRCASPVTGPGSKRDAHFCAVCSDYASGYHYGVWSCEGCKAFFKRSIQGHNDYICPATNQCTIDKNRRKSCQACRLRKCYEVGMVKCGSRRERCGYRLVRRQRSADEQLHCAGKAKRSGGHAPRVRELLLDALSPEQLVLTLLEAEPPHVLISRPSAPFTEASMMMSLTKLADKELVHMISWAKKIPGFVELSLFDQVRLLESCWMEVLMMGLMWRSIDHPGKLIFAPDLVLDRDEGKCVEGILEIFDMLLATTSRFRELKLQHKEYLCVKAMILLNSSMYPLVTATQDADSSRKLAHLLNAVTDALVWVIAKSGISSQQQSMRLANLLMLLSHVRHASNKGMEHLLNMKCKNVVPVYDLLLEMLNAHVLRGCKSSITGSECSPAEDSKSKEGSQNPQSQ

Brc1ccccc1 [BROMOBENZENE]
Not Active: IC50 [1] | Ki [1] | IC50 [2] | IC50 [3] | IC50 [4] | IC50 [5] | IC50 (Histamine H2 receptor) | IC50 [6] | Ki [6] | IC50 (Insulin receptor) | IC50 [7] | Ki [7] | IC50 (Melanocortin receptor 3) | IC50 [8] | IC50 (Cytochrome P450 1A2) | Ki (Cytochrome P450 1A2) | IC50 (Cytochrome P450 2D6) | Ki (Cytochrome P450 2D6) | IC50 (Estrogen receptor beta)

COc1ccc2cc(CC(=O)O)ccc2c1
Not Active: IC50 [1] | Ki [1] | IC50 [2] | IC50 [3] | IC50 [4] | IC50 [5] | IC50 (Histamine H2 receptor) | IC50 [6] | Ki [6] | IC50 (Insulin receptor) | IC50 [7] | Ki [7] | IC50 (Melanocortin receptor 3) | IC50 [8] | IC50 (Cytochrome P450 1A2) | Ki (Cytochrome P450 1A2) | IC50 (Cytochrome P450 2D6) | Ki (Cytochrome P450 2D6) | IC50 (Estrogen receptor beta)

CC[N+](CC)(CC)CCOc1cccc(OCC[N+](CC)(CC)CC)c1OCC[N+](CC)(CC)CC.[I-].[I-].[I-] [GALLAMINE TRIETHIODIDE]
Not Active: IC50 [1] | Ki [1] | IC50 [2] | IC50 [3] | IC50 [4] | IC50 [5] | IC50 (Histamine H2 receptor) | IC50 [6] | Ki [6] | IC50 (Insulin receptor) | IC50 [7] | Ki [7] | IC50 (Melanocortin receptor 3) | IC50 [8] | IC50 (Cytochrome P450 1A2) | Ki (Cytochrome P450 1A2) | IC50 (Cytochrome P450 2D6) | Ki (Cytochrome P450 2D6) | IC50 (Estrogen receptor beta)

OCc1ccccc1 [BENZYL ALCOHOL]
Not Active: IC50 [1] | Ki [1] | IC50 [2] | IC50 [3] | IC50 [4] | IC50 [5] | IC50 (Histamine H2 receptor) | IC50 [6] | Ki [6] | IC50 (Insulin receptor) | IC50 [7] | Ki [7] | IC50 (Melanocortin receptor 3) | IC50 [8] | IC50 (Cytochrome P450 1A2) | Ki (Cytochrome P450 1A2) | IC50 (Cytochrome P450 2D6) | Ki (Cytochrome P450 2D6) | IC50 (Estrogen receptor beta)

CC1(C)[C@@H](O[C@H]2O[C@H](C(=O)O)[C@@H](O)[C@H](O)[C@H]2O[C@@H]2O[C@H](C(=O)O)[C@@H](O)[C@H](O)[C@H]2O)CC[C@]2(C)[C@H]3C(=O)C=C4[C@@H]5C[C@@](C)(C(=O)O)CC[C@]5(C)CC[C@@]4(C)[C@]3(C)CC[C@@H]12 [GLYCYRRHIZIN]
Not Active: IC50 [1] | Ki [1] | IC50 [2] | IC50 [3] | IC50 [4] | IC50 [5] | IC50 (Histamine H2 receptor) | IC50 [6] | Ki [6] | IC50 (Insulin receptor) | IC50 [7] | Ki [7] | IC50 (Melanocortin receptor 3) | IC50 [8] | IC50 (Cytochrome P450 1A2) | Ki (Cytochrome P450 1A2) | IC50 (Cytochrome P450 2D6) | Ki (Cytochrome P450 2D6) | IC50 (Estrogen receptor beta)

CCc1cccc2c3c([nH]c12)C(CC)(CC(=O)O)OCC3 (configuration not stated) [ETODOLAC]
Not Active: IC50 [1] | Ki [1] | IC50 [2] | IC50 [3] | IC50 [4] | IC50 [5] | IC50 (Histamine H2 receptor) | IC50 [6] | Ki [6] | IC50 (Insulin receptor) | IC50 [7] | Ki [7] | IC50 (Melanocortin receptor 3) | IC50 [8] | IC50 (Cytochrome P450 1A2) | Ki (Cytochrome P450 1A2) | IC50 (Cytochrome P450 2D6) | Ki (Cytochrome P450 2D6) | IC50 (Estrogen receptor beta)

COCc1c(C(C)C)nc(C(C)C)c(/C=C/[C@@H](O)C[C@@H](O)CC(=O)O)c1-c1ccc(F)cc1 [CERIVASTATIN]
Not Active: IC50 [1] | Ki [1] | IC50 [2] | IC50 [3] | IC50 [4] | IC50 [5] | IC50 (Histamine H2 receptor) | IC50 [6] | Ki [6] | IC50 (Insulin receptor) | IC50 [7] | Ki [7] | IC50 (Melanocortin receptor 3) | IC50 [8] | IC50 (Cytochrome P450 1A2) | Ki (Cytochrome P450 1A2) | IC50 (Cytochrome P450 2D6) | Ki (Cytochrome P450 2D6) | IC50 (Estrogen receptor beta)

COc1ccc([C@@H]2Sc3ccccc3N(CCN(C)C)C(=O)[C@@H]2OC(C)=O)cc1 [DILTIAZEM]
Not Active: IC50 [1] | Ki [1] | IC50 [2] | IC50 [3] | IC50 [4] | IC50 [5] | IC50 (Histamine H2 receptor) | IC50 [6] | Ki [6] | IC50 (Insulin receptor) | IC50 [7] | Ki [7] | IC50 (Melanocortin receptor 3) | IC50 [8] | IC50 (Cytochrome P450 1A2) | Ki (Cytochrome P450 1A2) | IC50 (Cytochrome P450 2D6) | Ki (Cytochrome P450 2D6) | IC50 (Estrogen receptor beta)
